Test results: patent publication US10858348B2, “Salt forms of 4-cyano-N-(4,4-dimethylcyclohex-1-en-1-yl)-6-(2,2,6,6-Tetr amethyltetrahydro-2H-pyran-4-yl)pyridin-3-yl)-1H-imidazole-2-carboximide” (Janssen Pharmaceutica NV, priority 2016, dated 2020)
Converted amounts (≈) assume the structure as drawn.

Assay: physchem
Assay type: physicochemical
Settings: organic solvent or mixture

solubility: ~130 mg/mL (≈ 282 mM)
Structure (SMILES): CC1(C)CC=C(c2nc(C3CC(C)(C)OC(C)(C)C3)ccc2NC(=O)c2nc(C#N)c[nH]2)CC1 [Compound A, 4-cyano-N-[2-(4,4-dimethylcyclohex-1-en-1-yl)-6-(2,2,6,6-tetramethyltetrahydro-2H-pyran-4-yl)pyridin-3-yl]-1H-imidazole-2-carboxamide]
